ChEMBL document CHEMBL1124036 (J Med Chem, 1988)
pIC50: −log10 of the molar value.

Assays:
[1] = tested on: HEp-2; assay: Concentration required to produce 50% reduction in cloning of H.Ep.No.2 cells by 50%; format: functional, cell-based; conditions: Homo sapiens
[2] = tested on: L1210; assay: Concentration required to produce 50% reduction in the rate of proliferation of L1210 cells; format: functional, cell-based; conditions: Mus musculus

SMILES | pIC50 [1] | pIC50 [2]
Nc1nc(F)nc2c1ncn2C1O[C@H](CO)[C@H](O)[C@H]1N (stereo partly specified) | 4.92 | 3.92
[N-]=[N+]=N[C@H]1C(n2cnc3c(N)nc(F)nc32)O[C@H](CO)[C@@H]1O (stereo partly specified) | 4.54 | 4.00
Nc1nc(Cl)nc2c1ncn2C1O[C@H](CO)[C@H](O)[C@H]1N (stereo partly specified) | 4.10 | < 3.92
Nc1nc(Cl)nc2c1ncn2C1O[C@H](CO)[C@H](O)[C@H]1Br (stereo partly specified) | < 3.96 | < 3.96
Nc1nc(Cl)nc2c1ncn2C1O[C@H](CO)[C@H](O)[C@H]1Cl (stereo partly specified) | < 3.92 | < 3.92
Nc1nc(Cl)nc2c1ncn2C1O[C@H](CO)[C@H](O)[C@H]1I (stereo partly specified) | < 4.00 | < 4.00
[N-]=[N+]=N[C@H]1C(n2cnc3c(N)nc(Cl)nc32)O[C@H](CO)[C@@H]1O (stereo partly specified) | < 3.92 | < 3.92
Nc1nc(F)nc2c1ncn2C1O[C@H](CO)[C@H](O)[C@H]1Cl (stereo partly specified) | 4.00 | 4.22
